{
  "source": "patent US7955629B2",
  "about": "“Method of feeding milk replacer with carnitine” (Land O'Lakes Purina Feed LLC, priority 2005, dated 2011)",
  "origin": "cited, not measured here",
  "key": {"[1]": {"details": "ten month old steers; 0.6 and 1.2 grams per day; forty two day trial"}, "[2]": {"test": "not given", "remark": "listed apart in the source"}, "[3]": {"test": "not given", "remark": "listed apart in the source"}},
  "data": [
    {"compound": "C[N+](C)(C)CC(O)CC(=O)[O-]", "note": "(centres unmarked) [carnitine]", "values": [
      {"measurement": "effectiveness of carnitine (backfat depths)", "setting": "[1]", "result": "inconclusive"},
      {"measurement": "milk fat content and milk fat yield", "setting": "dosed directly into the abomasum", "result": "decreased"},
      {"measurement": "digestible and metabolized energy from the diet", "setting": "dosed directly into the rumen or abomasum", "result": "tended to increase"},
      {"measurement": "Milk production", "setting": "dosed into the rumen or abomasum", "result": "not affected"},
      {"measurement": "average daily gain compared to the control", "setting": "[2]; heifers fed 0.6 and 1.2 grams per day, midpoint of the experiment", "result": "statistically significantly greater"},
      {"measurement": "average daily weight gain, fed or not fed carnitine", "setting": "[2]; heifers, end of the forty two day experiment", "result": "no statistically significant difference"},
      {"measurement": "Acetate to proprionate ratios", "setting": "[3]; mature ruminally cannulated steers", "result": "not effected"},
      {"measurement": "nitrogen uptake from the rumen", "setting": "[3]; supplementation at high levels in a high roughage diet", "result": "little effect"}
    ]}
  ]
}
